These results are taken from ChEMBL document CHEMBL3352457 (Bioorg Med Chem Lett, 2015).

Calls of active or inactive are those of the source. No cut-off for these calls is given here.

Test [1] concerns the target T1, Neurotensin receptor type 2 (Rattus norvegicus) (UniProt Q63384).
T1 sequence (whole entry): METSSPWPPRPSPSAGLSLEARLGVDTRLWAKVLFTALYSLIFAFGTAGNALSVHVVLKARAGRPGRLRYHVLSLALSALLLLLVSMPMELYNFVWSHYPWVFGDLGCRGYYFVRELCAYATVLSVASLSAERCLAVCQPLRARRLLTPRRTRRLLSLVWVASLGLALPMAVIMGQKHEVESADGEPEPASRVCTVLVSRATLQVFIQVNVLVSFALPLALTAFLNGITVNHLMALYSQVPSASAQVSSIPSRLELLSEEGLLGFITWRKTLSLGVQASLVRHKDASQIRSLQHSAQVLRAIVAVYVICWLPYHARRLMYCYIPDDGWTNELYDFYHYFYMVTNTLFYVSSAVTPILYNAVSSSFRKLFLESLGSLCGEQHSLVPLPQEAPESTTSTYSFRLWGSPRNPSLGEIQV
Description: Agonist activity at rat neurotensin receptor type 2 expressed in CHOK1 cells assessed as increase in calcium release at 10 uM by FLIPR assay. Format: functional, cell-based. To be noted: CHO-K1.

Test [2] addresses Neurotensin receptor type 1 (Rattus norvegicus) (UniProt P20789). The test is described as follows: Antagonist activity at rat neurotensin receptor type 1 expressed in CHOK1 cells assessed as inhibition of calcium release at 10 uM by FLIPR assay. To be noted: CHO-K1. Format: functional, cell-based.
Test [3] has the same target. Description: Agonist activity at rat neurotensin receptor type 1 expressed in CHOK1 cells assessed as increase in calcium release at 10 uM by FLIPR assay. Format: functional, cell-based. To be noted: CHO-K1.
Test [4] deals with T1, Neurotensin receptor type 2 (Rattus norvegicus). The test is described as follows: Antagonist activity at rat neurotensin receptor type 2 expressed in CHOK1 cells assessed as inhibition of SR142948a-induced calcium release at 10 uM by FLIPR assay. Format: functional, cell-based. To be noted: CHO-K1.
Test [5] addresses T2, Neurotensin receptor type 2 (Rattus norvegicus, UniProt Q63384).
T2 sequence (Q63384 whole entry): T1 sequence (whole entry)
The test is described as follows: Agonist activity at rat neurotensin receptor type 2 expressed in CHOK1 cells assessed as increase in calcium release by FLIPR assay. Format: functional, cell-based, CHO-K1.

Test [6] has as its target Neurotensin receptor type 1 (Rattus norvegicus, UniProt P20789). Description: Displacement of [[…]]NT from rat neurotensin receptor type 1 expressed in CHOK1 cells by radioligand binding assay. The class given is cell-based, CHO-K1.
Test [7] has as its target T2, Neurotensin receptor type 2. Description: Displacement of [[…]]NT from rat neurotensin receptor type 2 expressed in CHOK1 cells by radioligand binding assay. Format: cell-based, CHO-K1.
Test [8] shares this target. The test is described as follows: Antagonist activity at rat neurotensin receptor type 2 expressed in CHOK1 cells assessed as inhibition of SR142948a-induced calcium release by FLIPR assay. Format: functional, cell-based, CHO-K1.
The target in test [9] is Neurotensin receptor type 1 (Rattus norvegicus) (UniProt P20789). The test is described as follows: Agonist activity at rat neurotensin receptor type 1 expressed in CHOK1 cells assessed as increase in calcium release by FLIPR assay. Format: functional, cell-based. To be noted: CHO-K1.
The target in test [10] is T1, Neurotensin receptor type 2 (Rattus norvegicus). Description: Agonist activity at rat neurotensin receptor type 2 expressed in CHOK1 cells assessed as increase in calcium release by FLIPR assay relative to SR142948a. Format: functional, cell-based. The conditions noted are these: CHO-K1.

Chain of Neurotensin receptor type 1 (Rattus norvegicus) (P20789 whole entry): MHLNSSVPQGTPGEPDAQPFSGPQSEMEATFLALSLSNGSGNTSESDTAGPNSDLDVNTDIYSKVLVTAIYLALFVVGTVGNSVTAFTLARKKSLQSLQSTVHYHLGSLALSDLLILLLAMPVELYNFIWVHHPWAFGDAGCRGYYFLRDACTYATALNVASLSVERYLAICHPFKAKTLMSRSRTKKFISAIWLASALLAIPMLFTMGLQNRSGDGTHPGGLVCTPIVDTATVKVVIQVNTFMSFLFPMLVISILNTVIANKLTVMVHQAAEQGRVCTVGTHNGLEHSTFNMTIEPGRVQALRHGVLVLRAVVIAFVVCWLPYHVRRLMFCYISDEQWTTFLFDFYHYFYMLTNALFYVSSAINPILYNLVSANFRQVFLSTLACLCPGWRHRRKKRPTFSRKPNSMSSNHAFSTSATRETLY
Chain of Neurotensin receptor type 1 (P20789 whole entry): as above

Usually inhibition stands for the drop in the measured response relative to a control, in per cent. Consider `O=C1NC(=O)N(c2ccc(C(=O)O)cc2)C(=O)/C1=C/c1c(OCc2ccccc2)ccc2ccccc12`, for which the result in [1] and in [3] was inactive. Also, the inhibition result in test [2] and in test [4] was “inactive” throughout.
As for `COc1ccc(C(=O)O)cc1NC(=S)NC(=O)C(c1ccccc1)c1ccccc1`, the outcome in test [1] and in [3] was inactive. The inhibition entry in [2] and in test [4] was “inactive” in each case.
As for `Cc1ccc(C(=O)O)cc1NC(=S)NC(=O)C(c1ccccc1)c1ccccc1`, the result in test [1] and in test [3] was inactive. The inhibition result in test [2] and in [4] was “inactive” in each case.
As for `COc1ccccc1C(=O)N/C(=C\c1ccc2c(c1)OCO2)C(=O)N[C@H](C(=O)O)C(C)C` (stereo in doubt), the result in test [1] and in test [3] was inactive. Moreover, the inhibition entry in test [2] and in test [4] was “inactive” throughout.
Consider `COc1ccc(C(=O)N/C(=C\c2cccc([N+](=O)[O-])c2)C(=O)N[C@@H](CC(C)C)C(=O)O)cc1`, for which the outcome in test [1] and in test [3] was inactive. In addition, the inhibition entry in test [2] and in [4] was “inactive” each time.
For the molecule `O=C(O)c1ccc(NC(=S)NC(=O)C(c2ccccc2)c2ccccc2)cc1Cl`, the outcome in test [1] and in test [3] was inactive. The inhibition result in test [2] and in [4] was “inactive” in each case.
Turning to `Cc1c(NC(=S)NC(=O)C(c2ccccc2)c2ccccc2)cccc1C(=O)O`, the result in test [1] and in test [3] was inactive. For the same molecule, the inhibition result in test [2] and in test [4] was “inactive” each time.
For `O=C(O)c1cccc(NC(=S)NC(=O)C(c2ccccc2)c2ccccc2)c1`, the result in test [1] and in [3] was inactive. Moreover, the inhibition result in test [2] and in [4] was “inactive” each time.
Usually EC50 stands for the concentration at which the effect is half-maximal. Broadly, the Ki is a dissociation constant, usually derived from enzyme kinetics or from competition with a known ligand. With `COc1cccc(OC)c1-c1cc(C(=O)NC2(C(=O)O)C3CC4CC(C3)CC2C4)nn1-c1ccc(C(=O)N(C)CCCN(C)C)cc1C(C)C` (centres undefined), the EC50 in [5] was 18 nM. Also, the Ki in test [6] came to 2 nM; in test [7] it was 7 nM.
Take `CC(C)[C@H](NC(=O)/C(=C/c1ccccc1)NC(=O)c1ccccc1)C(=O)O`: the outcome in test [1] and in test [3] was inactive. Besides, the inhibition result in test [2] and in test [4] was “inactive” in each case.
For orientation: IC50 means the midpoint of a concentration-inhibition curve. On to `COc1cccc(OC)c1-c1nc(C(=O)N[C@H](C(=O)O)C2CCCCC2)nc2ccc(Cl)cc12`, for which, in [8], the IC50 came out at 1070 nM. For the same molecule, the Ki in [7] stood at 474 nM. For the same molecule, the result in [9] was inactive.
`O=C(O)c1cc(Nc2nc(-c3ccccc3)c3cc(Cl)ccc3n2)ccc1O`: the result in test [1] and in test [3] was inactive. The inhibition result in [2] is “inactive”. Moreover, the inhibition in [4] was 20%.
The Emax is the greatest response seen or fitted, relative to the assay's reference. Take `COc1cccc(OC)c1-c1nc(C(=O)NC2(C(=O)O)CCCCC2)nc2ccc(Cl)cc12`: in [5], the EC50 is 145 nM. Besides, the Emax in [10] amounted to 26%. Besides, the Ki in [7] turned out to be 959 nM. In test [9], the result was inactive.
In the case of `COc1ccc(C(=O)N/C(=C\c2ccccc2)C(=O)N[C@H](C(=O)O)C(C)C)cc1`, the result in test [1] and in test [3] was inactive. The inhibition result in test [2] and in test [4] was “inactive” throughout.
